Values after ≈ are worked out from the molar mass of the structure shown. Read-outs that look alike come from different tables or passages of the source.
Key:
[1] = test system: B. subtilis DSM 29870; conditions: EFSA Journal 2012; 10(6): 2740; cited from earlier work
[2] = test system: B. subtilis DSM 29871; conditions: EFSA Journal 2012; 10(6): 2740; cited from earlier work
[3] = test system: B. subtilis DSM 29871; type: cell-based, Bacillus subtilis; conditions: Bacillus subtilis, DSM29871, 37° C., 20-24 h
[4] = test system: B. subtilis DSM 29870; type: cell-based, Bacillus subtilis; conditions: Bacillus subtilis, DSM29870, 37° C., 20-24 h
[5] = test system: B. amyloliquefaciens DSM 29869; type: cell-based, Bacillus amyloliquefaciens; conditions: Bacillus amyloliquefaciens, DSM29869, 37° C., 20-24 h
[6] = test system: B. amyloliquefaciens DSM 29869; conditions: EFSA Journal 2012; 10(6): 2740; cited from earlier work
[7] = biological replicate MIC 1, read-out: MIC 1
[8] = biological replicate MIC 2, read-out: MIC 2
[9] = biological replicate MIC 3, read-out: MIC 3

Structure (SMILES)	EFSA breakpoints [1] [µg/mL]	EFSA breakpoints [2] [µg/mL]	MIC [3, 7] [µg/mL]	MIC [3, 8] [µg/mL]	MIC [3, 9] [µg/mL]	MIC [4, 7] [µg/mL]	MIC [4, 8] [µg/mL]	MIC [4, 9] [µg/mL]	MIC [5, 7] [µg/mL]	MIC [5, 8] [µg/mL]	MIC [5, 9] [µg/mL]	EFSA breakpoints [6] [µg/mL]
O=C(N[C@H](CO)[C@H](O)c1ccc([N+](=O)[O-])cc1)C(Cl)Cl [Chloramphenicol]	8	8	8 (≈ 24.8 µM)	4 (≈ 12.4 µM)	8 (≈ 24.8 µM)	4 (≈ 12.4 µM)	8 (≈ 24.8 µM)	4 (≈ 12.4 µM)	4 (≈ 12.4 µM)	4 (≈ 12.4 µM)	4 (≈ 12.4 µM)	8
CCC[C@@H]1C[C@@H](C(=O)N[C@@H]([C@H]2O[C@H](SC)[C@H](O)[C@@H](O)[C@H]2O)[C@H](C)Cl)N(C)C1 [Clindamycin]			0.5 (≈ 1.18 µM)	0.25 (≈ 0.588 µM)	0.5 (≈ 1.18 µM)	0.25 (≈ 0.588 µM)	0.25 (≈ 0.588 µM)	0.25 (≈ 0.588 µM)	1 (≈ 2.35 µM)	0.5 (≈ 1.18 µM)	1 (≈ 2.35 µM)	
CC[C@H]1OC(=O)[C@H](C)[C@@H](O[C@H]2C[C@@](C)(OC)[C@@H](O)[C@H](C)O2)[C@H](C)[C@@H](O[C@@H]2O[C@H](C)C[C@H](N(C)C)[C@H]2O)[C@](C)(O)C[C@@H](C)C(=O)[C@H](C)[C@@H](O)[C@]1(C)O [Erythromycin]	4	4	0.125 (≈ 0.17 µM)	0.125 (≈ 0.17 µM)	0.125 (≈ 0.17 µM)	0.125 (≈ 0.17 µM)	0.125 (≈ 0.17 µM)	0.125 (≈ 0.17 µM)	0.5 (≈ 0.681 µM)	0.06 (≈ 0.0818 µM)	0.06 (≈ 0.0818 µM)	4
NC[C@H]1O[C@H](O[C@H]2[C@H](O)[C@@H](O[C@H]3O[C@H](CO)[C@@H](O)[C@H](N)[C@H]3O)[C@H](N)C[C@@H]2N)[C@H](O)[C@@H](O)[C@@H]1O [Kanamycin]			2 (≈ 4.13 µM)	1 (≈ 2.06 µM)	2 (≈ 4.13 µM)	2 (≈ 4.13 µM)	1 (≈ 2.06 µM)	2 (≈ 4.13 µM)	2 (≈ 4.13 µM)	0.5 (≈ 1.03 µM)	0.5 (≈ 1.03 µM)	

— US11331351B2, “Bacillus strains improving health and performance of production animals” (priority 2015, dated 2022)
